Source: US10023570B2 (Array BioPharma, Inc., priority 2015, dated 2018)

target: human KDR protein in HEK-293 cells (Homo sapiens (Human), UniProt P35968); assay: KDR Cell Assay (phospho-KDR in HEK-293 cells expressing inducible KDR); format: cell-based; conditions: pKDR Cell HEK 10% FBS IC50, HEK-293 cells expressing inducible KDR, VEGF stimulated
Procedure, shortened: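 HEK-293 cells with inducible human KDR were treated with compound for 1 h in DMEM (0.25% DMSO final), then lysed. Phospho-KDR was quantified by Meso Scale immunoassay, expressed as percent of control, and IC50 taken where a 4-parameter logistic fit crossed 50 POC.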

Chain of human KDR protein in HEK-293 cells (P35968 20-1356): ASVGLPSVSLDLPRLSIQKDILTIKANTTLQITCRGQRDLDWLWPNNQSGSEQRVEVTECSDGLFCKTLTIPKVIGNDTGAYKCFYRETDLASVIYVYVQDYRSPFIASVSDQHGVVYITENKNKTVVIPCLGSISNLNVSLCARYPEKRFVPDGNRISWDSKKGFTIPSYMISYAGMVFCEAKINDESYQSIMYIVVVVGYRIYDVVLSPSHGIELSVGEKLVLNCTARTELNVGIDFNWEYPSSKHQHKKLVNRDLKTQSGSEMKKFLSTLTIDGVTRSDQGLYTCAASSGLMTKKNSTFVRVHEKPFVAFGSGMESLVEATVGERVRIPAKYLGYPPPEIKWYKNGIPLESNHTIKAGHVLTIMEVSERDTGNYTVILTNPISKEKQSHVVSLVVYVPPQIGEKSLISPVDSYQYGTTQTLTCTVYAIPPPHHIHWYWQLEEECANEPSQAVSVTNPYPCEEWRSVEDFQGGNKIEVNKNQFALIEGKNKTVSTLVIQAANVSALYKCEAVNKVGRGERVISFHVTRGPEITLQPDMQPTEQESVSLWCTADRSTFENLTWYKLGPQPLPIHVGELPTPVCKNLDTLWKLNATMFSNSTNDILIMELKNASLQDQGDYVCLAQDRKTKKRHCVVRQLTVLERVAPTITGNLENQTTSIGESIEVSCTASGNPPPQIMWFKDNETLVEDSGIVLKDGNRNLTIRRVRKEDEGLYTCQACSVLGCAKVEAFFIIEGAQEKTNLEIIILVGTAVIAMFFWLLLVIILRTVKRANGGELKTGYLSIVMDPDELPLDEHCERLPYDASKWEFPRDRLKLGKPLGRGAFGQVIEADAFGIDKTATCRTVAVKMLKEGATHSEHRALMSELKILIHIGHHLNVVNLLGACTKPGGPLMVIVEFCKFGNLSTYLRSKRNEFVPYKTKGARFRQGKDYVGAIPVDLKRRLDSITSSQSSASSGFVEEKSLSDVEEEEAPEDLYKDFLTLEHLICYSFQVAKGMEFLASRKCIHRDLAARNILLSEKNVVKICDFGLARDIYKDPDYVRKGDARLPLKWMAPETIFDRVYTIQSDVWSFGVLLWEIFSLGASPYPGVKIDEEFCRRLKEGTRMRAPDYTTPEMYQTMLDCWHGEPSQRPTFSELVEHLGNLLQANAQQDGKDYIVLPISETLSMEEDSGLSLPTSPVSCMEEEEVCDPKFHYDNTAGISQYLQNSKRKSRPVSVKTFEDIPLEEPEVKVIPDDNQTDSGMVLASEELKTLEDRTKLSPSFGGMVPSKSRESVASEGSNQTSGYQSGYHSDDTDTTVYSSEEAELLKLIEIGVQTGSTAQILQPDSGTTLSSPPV

Compound | IC50 [nM]
Cn1cc(-c2cc(-c3ccc(N4C5CC4CN(Cc4ccccc4)C5)nc3)c3c(C#N)cnn3c2)cn1 [Example 490, 4-(6-(3-benzyl-3,6-diazabicyclo[3.1.1]heptan-6-yl)pyridin-3-yl)-6-(1-methyl-1H-pyrazol-4-yl)pyrazolo[1,5-a]pyridine-3-carbonitrile] | 619
Cn1cc(-c2cc(-c3ccc(N4C5CCC4CN(Cc4ccccc4)C5)nc3)c3c(C#N)cnn3c2)cn1 [Example 491, 4-(6-(3-benzyl-3,8-diazabicyclo[3.2.1]octan-8-yl)pyridin-3-yl)-6-(1-methyl-1H-pyrazol-4-yl)pyrazolo[1,5-a]pyridine-3-carbonitrile] | 120
Cn1cc(-c2cc(-c3ccc(N4CC5(CCOC5)C4)nc3)c3c(C#N)cnn3c2)cn1 [Example 528, 4-(6-(6-oxa-2-azaspiro[3.4]octan-2-yl)pyridin-3-yl)-6-(1-methyl-1H-pyrazol-4-yl)pyrazolo[1,5-a]pyridine-3-carbonitrile 2,2,2-trifluoroacetate] | 1670

Continued, values first:

IC50 [nM] | Compound
346 | Cn1cc(-c2cc(-c3ccc(N4CCN(C(=O)N5CCC(C6CC6)C5)CC4)nc3)c3c(C#N)cnn3c2)cn1 (stereo not drawn) [Example 388, 4-(6-(4-(3-cyclopropylpyrrolidine-1-carbonyl)piperazin-1-yl)pyridin-3-yl)-6-(1-methyl-1H-pyrazol-4-yl)pyrazolo[1,5-a]pyridine-3-carbonitrile]
1250 | Cn1cc(-c2cc(-c3ccc(N4CCN(Cc5ccc(F)cc5F)CC4)nc3)c3c(C#N)cnn3c2)cn1 [Example 426, 4-(6-(4-(2,4-difluorobenzyl)piperazin-1-yl)pyridin-3-yl)-6-(1-methyl-1H-pyrazol-4-yl)pyrazolo[1,5-a]pyridine-3-carbonitrile]
453 | Cn1cc(-c2cc(-c3ccc(N4CCN(CC5CC5)CC4)nc3)c3c(C#N)cnn3c2)cn1 [Example 394, 4-(6-(4-(cyclopropylmethyl)piperazin-1-yl)pyridin-3-yl)-6-(1-methyl-1H-pyrazol-4-yl)pyrazolo[1,5-a]pyridine-3-carbonitrile]
437 | CCN(CC)C(=O)N1CC2(CCN(c3ccc(-c4cc(-c5cnn(C)c5)cn5ncc(C#N)c45)cn3)CC2)C1 [Example 502, 7-(5-(3-cyano-6-(1-methyl-1H-pyrazol-4-yl)pyrazolo[1,5-a]pyridin-4-yl)pyridin-2-yl)-N,N-diethyl-2,7-diazaspiro[3.5]nonane-2-carboxamide]
263 | Cn1cc(-c2cc(-c3ccc(N4CCN(CCc5ccccc5)CC4)nc3)c3c(C#N)cnn3c2)cn1 [Example 411, 6-(1-methyl-1H-pyrazol-4-yl)-4-(6-(4-phenethylpiperazin-1-yl)pyridin-3-yl)pyrazolo[1,5-a]pyridine-3-carbonitrile]
771 | Cn1cc(-c2cc(-c3ccc(N4CCC5(CC4)CN(C(=O)C4CCCCC4)C5)nc3)c3c(C#N)cnn3c2)cn1 [Example 495, 4-(6-(2-(cyclohexanecarbonyl)-2,7-diazaspiro[3.5]nonan-7-yl)pyridin-3-yl)-6-(1-methyl-1H-pyrazol-4-yl)pyrazolo[1,5-a]pyridine-3-carbonitrile]
2940 | Cn1cc(-c2cc(-c3ccc(N4CCC5(CCCN5C(=O)OC(C)(C)C)CC4)nc3)c3c(C#N)cnn3c2)cn1 [Example 513, tert-butyl 8-(5-(3-cyano-6-(1-methyl-1H-pyrazol-4-yl)pyrazolo[1,5-a]pyridin-4-yl)pyridin-2-yl)-1,8-diazaspiro[4.5]decane-1-carboxylate]
1670 | COc1cncc(CN2CCN(c3ccc(-c4cc(-c5cnn(C)c5)cn5ncc(C#N)c45)cn3)CC2)c1 [Example 442, 4-(6-(4-((5-methoxypyridin-3-yl)methyl)piperazin-1-yl)pyridine-3-yl)-6-(1-methyl-1H-pyrazol-4-yl)pyrazolo[1,5-a]pyridine-3-carbonitrile]

same assay, conditions: pKDR Cell HEK 10% FBS IC50, HEK-293 cells expressing inducible KDR, VEGF stimulated, 10% FBS

IC50 [nM] | Compound
1860 | Cn1cc(-c2cc(-c3ccc(N4CCN(C(=O)C5(c6cnccn6)CC5)CC4)nc3)c3c(C#N)cnn3c2)cn1 [Example 350, 6-(1-methyl-1H-pyrazol-4-yl)-4-(6-(4-(1-(pyrazin-2-yl)cyclopropane-carbonyl)piperazin-1-yl)pyridin-3-yl)pyrazolo[1,5-a]pyridine-3-carbonitrile]
1780 | C[C@@H](C(=O)N1CCN(c2ccc(-c3cc(-c4cnn(C)c4)cn4ncc(C#N)c34)cn2)CC1)c1ccccc1 [Example 14, (R)-6-(1-methyl-1H-pyrazol-4-yl)-4-(6-(4-(2-phenylpropanoyl)piperazin-1-yl)pyridin-3-yl)pyrazolo[1,5-a]pyridine-3-carbonitrile]
2990 | Cn1cc(-c2cc(-c3ccc(C4CCN(C(=O)CC(C)(C)C)CC4)cc3)c3c(C#N)cnn3c2)cn1 [Example 302, 4-(4-(1-(3,3-dimethylbutanoyl)piperidin-4-yl)phenyl)-6-(1-methyl-1H-pyrazol-4-yl)pyrazolo[1,5-a]pyridine-3-carbonitrile]
606 | Cn1cc(-c2cc(-c3ccc(N4CCN(C(=O)[C@H](O)c5ccccc5)CC4)nc3)c3c(Cl)cnn3c2)cn1 [Example 327, (R)-1-(4-(5-(3-chloro-6-(1-methyl-1H-pyrazol-4-yl)pyrazolo[1,5-a]pyridin-4-yl)pyridin-2-yl)piperazin-1-yl)-2-hydroxy-2-phenylethanone]
4860 | Cn1cc(-c2cc(-c3ccc(N4CCN(C(=O)[C@H](O)c5cccc(Cl)c5)CC4)nc3)c3ccnn3c2)cn1 [Example 322, (R)-2-(3-chlorophenyl)-2-hydroxy-1-(4-(5-(6-(1-methyl-1H-pyrazol-4-yl)pyrazolo[1,5-a]pyridin-4-yl)pyridin-2-yl)piperazin-1-yl)ethanone]
138 | Cc1cc(-c2cc(-c3cnn(C)c3)cn3ncc(C#N)c23)cnc1N1CCN(C(=O)[C@H](O)c2ccccc2)CC1 [Example 278, (R)-4-(6-(4-(2-hydroxy-2-phenylacetyl)piperazin-1-yl)-5-methylpyridin-3-yl)-6-(1-methyl-1H-pyrazol-4-yl)pyrazolo[1,5-a]pyridine-3-carbonitrile]
637 | CO[C@@H]1CCN(C(=O)N2CCN(c3ccc(-c4cc(-c5cnn(C)c5)cn5ncc(C#N)c45)cn3)CC2)C1 [Example 104, (R)-4-(6-(4-(3-methoxypyrrolidine-1-carbonyl)piperazin-1-yl)pyridin-3-yl)-6-(1-methyl-a]pyridine-3-carbonitrile 1H-pyrazol-4-yl)pyrazolo[1,5-]
1700 | CO[C@H]1CCN(C(=O)N2CCN(c3ccc(-c4cc(-c5cnn(C(F)F)c5)cn5ncc(C#N)c45)cn3)CC2)C1 [Example 269, (S)-6-(1-(difluoromethyl)-1H-pyrazol-4-yl)-4-(6-(4-(3-methoxypyrrolidine-1-carbonyl)piperazin-1-yl)pyridin-3-yl)pyrazolo[1,5-a]pyridine-3-carbonitrile]
2770 | Cn1cc(-c2cc(-c3ccc(N4CC[C@@H](C(=O)NCCC(F)(F)F)C4)nc3)c3c(C#N)cnn3c2)cn1 [Example 259, (R)-1-(5-(3-cyano-6-(1-methyl-1H-pyrazol-4-yl)pyrazolo[1,5-a]pyridin-4-yl)pyridin-2-yl)-N-(3,3,3-trifluoropropyl)pyrrolidine-3-carboxamide]
1710 | CC(C)[C@@H](O)C(=O)N1CCN(c2ncc(-c3cc(-c4cnn(C)c4)cn4ncc(C#N)c34)cn2)CC1 [Example 285, (R)-4-(2-(4-(2-hydroxy-3-methylbutanoyl)piperazin-1-yl)pyrimidin-5-yl)-6-(1-methyl-1H-pyrazol-4-yl)pyrazolo[1,5-a]pyridine-3-carbonitrile]
662 | Cn1cc(-c2cc(-c3cnc(N4CCN(C(=O)[C@H](O)c5ccccc5)CC4)nc3)c3c(C#N)cnn3c2)cn1 [Example 282, (R)-4-(2-(4-(2-hydroxy-2-phenylacetyl)piperazin-1-yl)pyrimidin-5-yl)-6-(1-methyl-1H-pyrazol-4-yl)pyrazolo[1,5-a]pyridine-3-carbonitrile]

Compound | IC50 [nM]
CCCc1onc(C)c1C(=O)N1CCN(c2ccc(-c3cc(-c4cnn(C)c4)cn4ncc(C#N)c34)cn2)CC1 [Example 367, 4-yl)-4-(6-(4-(3-methyl-5-6-(1-methyl-1H-pyrazol-propylisoxazole-4-carbonyl)piperazin-1-yl)pyridin-3-yl)pyrazolo[1,5-a]pyridine-3-carbonitrile 2,2,2-trifluoroacetate] | 355
COCCn1ccc(C(=O)N2CCN(c3ccc(-c4cc(-c5cnn(C)c5)cn5ncc(C#N)c45)cn3)CC2)n1 [Example 366, 4-(6-(4-(1-(2-methoxyethyl)-1H-pyrazole-3-carbonyl)piperazin-1-yl)pyridin-3-yl)-6-(1-methyl-1H-pyrazol-4-yl)pyrazolo[1,5-a]pyridine-3-carbonitrile bis(2,2,2-trifluoroacetate)] | 422
Cc1cc(C(=O)N2CCN(c3ccc(-c4cc(-c5cnn(C)c5)cn5ncc(C#N)c45)cn3)CC2)no1 [Example 37, 6-(1-methyl-1H-pyrazol-4-yl)-4-(6-(4-(5-methylisoxazole-3-carbonyl)piperazin-1-yl)pyridin-3-yl)pyrazolo[1,5-a]pyridine-3-carbonitrile 2,2,2-trifluoroacetate] | 91.2
Cn1cc(-c2cc(-c3ccc(N4CCN(C(=O)C5(c6cccnc6)CC5)CC4)nc3)c3c(C#N)cnn3c2)cn1 [Example 369, 6-(1-methyl-1H-pyrazol-4-yl)-4-(6-(4-(1-(pyridine-3-yl)cyclopropane-1-carbonyl)piperazin-1-yl)pyridin-3-yl)pyrazolo[1,5-a]pyridine-3-carbonitrile bis(2,2,2-trifluoroacetate)] | 1270
Cn1cc(-c2cc(-c3ccc(N4CCN(C(=O)[C@H](N)c5ccccc5)CC4)nc3)c3c(C#N)cnn3c2)cn1 [Example 48, (R)-4-(6-(4-(2-amino-2-phenylacetyl)piperazin-1-yl)pyridin-3-yl)-6-(1-methyl-1H-pyrazol-4-yl)pyrazolo[1,5-a]pyridine-3-carbonitrile bis(2,2,2-trifluoroacetate)] | 612
